# Laboratory results from ChEMBL document CHEMBL5506024, “Multitarget μ-Opioid Receptor Agonists─Neuropeptide FF Receptor Antagonists Induce Potent Antinociception with Reduced Adverse Side Effects” (J Med Chem, 2024).
# Activity calls are given as the source filed them. The calls are words filed in the database; no cut-off is given here.
# Experiments:
# [1] = molecular target: T1, Neuropeptide FF receptor 2 (Homo sapiens, UniProt Q9Y5X5); assay: Antagonist potency at human NPFFR2 expressed in CHO cell membrane assessed as inhibition of NPVF induced cAMP response incubated for 1 hr by Topcount counting method; type: functional, cell membranes; settings: read-out: pA2 (converted)
# [2] = molecular target: T2, Neuropeptide FF receptor 1 (Homo sapiens, UniProt Q9GZQ6); assay: Antagonist activity at human NPFFR1 expressed in CHO cell membrane assessed as inhibition of NPVF induced cAMP response at 5 uM incubated for 1 hr by Topcount counting method relative to control; type: functional, cell membranes; parameters: scale not given: the % may be the effect or the level left
# [3] = molecular target: T1, Neuropeptide FF receptor 2; assay: Displacement of [125I]-1DMeNPFF from human NPFFR2 expressed in CHO cell membrane incubated for 1 hr by Topcount counting method; type: cell membranes
# [4] = molecular target: KiSS-1 receptor (Homo sapiens) (UniProt Q969F8); assay: Antagonist activity at human GPR54 expressed in CHO cells assessed as intracellular calcium release upto 10 uM by Fluo-4 AM dye based calcium mobilization assay; type: functional, cell-based
# [5] = molecular target: T3, Kappa-type opioid receptor (Homo sapiens, UniProt P41145); assay: Partial agonist activity at human KOR expressed in HEK293 cells assessed as forskolin-induced cAMP accumulation in presence of IBMX; type: functional, cell-based; settings: filed as partial agonist
# [6] = molecular target: Delta-type opioid receptor (Homo sapiens) (UniProt P41143); assay: Agonist activity at human DOP expressed in HEK293 cells assessed as inhibition of forskolin-induced cAMP accumulation; type: functional, cell-based; settings: filed as agonist
# Mus musculus [7] = assay: Antinociceptive activity in mouse at 2.5 to 10 mg/kg, sc measured after 6 hrs by tail immersion test; type: functional, organism-based; settings: dose 2.5-10 mg/kg
# [8] = molecular target: T1, Neuropeptide FF receptor 2; assay: Antagonist activity at human NPFFR2 expressed in CHO cell membrane assessed as inhibition of NPVF induced cAMP response at 5 uM incubated for 1 hr by Topcount counting method relative to control; type: functional, cell membranes; parameters: scale not given: the % may be the effect or the level left; settings: filed as antagonist
# [9] = Drug concentration in mouse plasma at 10 mg/kg, sc measured after 2 hrs by LC-MS/MS analysis; type: ADME, organism-based
# [10] = Cmax in mouse at 10 mg/kg, sc measured upto 24 hrs by LC-MS/MS analysis; type: ADME, organism-based; settings: in vivo
# [11] = molecular target: T4, Prolactin-releasing peptide receptor (Homo sapiens) (UniProt P49683); assay: Antagonist activity at human GPR10 expressed in CHO cells assessed as intracellular calcium release upto 10 uM by Fluo-4 AM dye based calcium mobilization assay; type: functional, cell-based
# T4 sequence (whole entry): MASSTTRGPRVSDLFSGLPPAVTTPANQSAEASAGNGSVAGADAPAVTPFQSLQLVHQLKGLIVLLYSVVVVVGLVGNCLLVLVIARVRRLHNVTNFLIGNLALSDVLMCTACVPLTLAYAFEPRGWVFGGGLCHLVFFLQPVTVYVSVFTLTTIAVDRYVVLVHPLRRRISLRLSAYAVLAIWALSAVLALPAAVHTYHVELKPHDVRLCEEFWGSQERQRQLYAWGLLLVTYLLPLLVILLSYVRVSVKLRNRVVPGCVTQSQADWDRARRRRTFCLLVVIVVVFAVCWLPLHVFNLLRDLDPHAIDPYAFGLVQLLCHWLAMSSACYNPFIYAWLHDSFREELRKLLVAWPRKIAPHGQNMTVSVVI
# Mu-type opioid receptor [12] = molecular target: T5, Mu-type opioid receptor (Homo sapiens, UniProt P35372); assay: Agonist activity at human Rluc8-tagged MOP expressed in HEK293 cells coexpressing eYFP-tagged beta-arrestin-2 assessed as beta-arrestin-2 recruitment incubated for 5 mins by luminometer analysis; type: functional, cell-based
# [13] = molecular target: T2, Neuropeptide FF receptor 1; assay: Displacement of [125I]-1DMeNPFF from human NPFFR1 expressed in CHO cell membrane at 0.5 uM incubated for 1 hr by Topcount counting method relative to control; type: cell membranes
# Mu-type opioid receptor [14] = molecular target: T5, Mu-type opioid receptor; assay: Agonist activity at human MOP expressed in HEK293 cells coexpressing GloSensor-20F assessed as inhibition of forskolin-induced cAMP accumulation relative to control; type: functional, cell-based; settings: filed as agonist
# [15] = molecular target: Nociceptin receptor (Homo sapiens) (UniProt P41146); assay: Partial agonist activity at human NOR expressed in HEK293 cells assessed as forskolin-induced cAMP accumulation in presence of IBMX; type: functional, cell-based; settings: filed as partial agonist
# [16] = molecular target: T1, Neuropeptide FF receptor 2; assay: Displacement of [125I]-1DMeNPFF from human NPFFR2 expressed in CHO cell membrane at 0.05 uM incubated for 1 hr by Topcount counting method relative to control; type: cell membranes; settings: filed as antagonist
# [17] = molecular target: KiSS-1 receptor (Homo sapiens) (UniProt Q969F8); assay: Agonist activity at human GPR54 expressed in CHO cells assessed as intracellular calcium release upto 10 uM by Fluo-4 AM dye based calcium mobilization assay; type: functional, cell-based
# [18] = Tmax in mouse at 10 mg/kg, sc measured upto 24 hrs by LC-MS/MS analysis; type: ADME, organism-based; settings: in vivo
# [19] = molecular target: T6, Pyroglutamylated RF-amide peptide receptor (Homo sapiens) (UniProt Q96P65); assay: Antagonist activity at human GPR103 expressed in CHO cells assessed as intracellular calcium release upto 10 uM by Fluo-4 AM dye based calcium mobilization assay; type: functional, cell-based
# T6 sequence (whole entry): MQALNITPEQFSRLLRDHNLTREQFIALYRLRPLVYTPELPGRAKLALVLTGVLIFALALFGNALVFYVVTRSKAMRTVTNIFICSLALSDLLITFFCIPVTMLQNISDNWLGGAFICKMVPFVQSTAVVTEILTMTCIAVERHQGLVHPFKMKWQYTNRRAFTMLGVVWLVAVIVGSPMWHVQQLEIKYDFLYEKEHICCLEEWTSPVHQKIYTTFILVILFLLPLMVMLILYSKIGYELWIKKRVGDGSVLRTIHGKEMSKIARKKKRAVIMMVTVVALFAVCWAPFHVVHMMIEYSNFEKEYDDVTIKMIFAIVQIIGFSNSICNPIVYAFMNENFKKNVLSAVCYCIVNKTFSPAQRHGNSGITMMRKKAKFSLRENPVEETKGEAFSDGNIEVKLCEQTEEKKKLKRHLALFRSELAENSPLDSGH
# [20] = molecular target: T6, Pyroglutamylated RF-amide peptide receptor (Homo sapiens); assay: Agonist activity at human GPR103 expressed in CHO cells assessed as intracellular calcium release upto 10 uM by Fluo-4 AM dye based calcium mobilization assay; type: functional, cell-based
# [21] = Half life in mouse at 10 mg/kg, sc measured upto 24 hrs by LC-MS/MS analysis; type: ADME, organism-based; settings: in vivo
# [22] = molecular target: T2, Neuropeptide FF receptor 1; assay: Antagonist potency at human NPFFR1 expressed in CHO cell membrane assessed as inhibition of NPVF induced cAMP response incubated for 1 hr by Topcount counting method; type: functional, cell membranes; settings: read-out: pA2 (converted)
# [23] = molecular target: T2, Neuropeptide FF receptor 1; assay: Displacement of [125I]-1DMeNPFF from human NPFFR1 expressed in CHO cell membrane incubated for 1 hr by Topcount counting method; type: cell membranes
# [24] = molecular target: T4, Prolactin-releasing peptide receptor (Homo sapiens); assay: Agonist activity at human GPR10 expressed in CHO cells assessed as intracellular calcium release upto 10 uM by Fluo-4 AM dye based calcium mobilization assay; type: functional, cell-based
# [25] = Toxicity in C57BL/6N mouse assessed as induction of respiratory depression by measuring decrease in pulmonary rate at 4 to 36 mg/kg, sc by plethysmography; type: organism-based; settings: in vivo, dose 4-36 mg/kg
# [26] = Induction of naltrexone-precipitated withdrawal syndrome in sc dosed C57BL/6N mouse assessed as wet dog shake counts administered for 8 days followed by naltrexone addition on day 9 after 2 hrs post last dose and measured after 30 mins; type: toxicity, organism-based; settings: in vivo, 216.5 h, time 12990 min
# [27] = molecular target: T3, Kappa-type opioid receptor; assay: Antagonist activity at human KOR expressed in HEK293 cells assessed as forskolin-induced cAMP accumulation in presence of IBMX; type: functional, cell-based; settings: read-out: pA2 (converted)
# [28] = Induction of naltrexone-precipitated withdrawal syndrome in sc dosed C57BL/6N mouse assessed as diarrhea administered for 8 days followed by naltrexone addition on day 9 after 2 hrs post last dose and measured after 30 mins; type: toxicity, organism-based; settings: in vivo, 216.5 h, time 12990 min
# Mus musculus [29] = assay: Antinociceptive activity in mouse at 4.2 umol/kg, sc administered chronically and measured on day 8; type: functional, organism-based; settings: dose 4.2 µmol/kg
# [30] = molecular target: Nociceptin receptor (Homo sapiens) (UniProt P41146); assay: Antagonist activity at human NOR expressed in HEK293 cells assessed as forskolin-induced cAMP accumulation in presence of IBMX; type: functional, cell-based; settings: filed as antagonist
# Mus musculus [31] = assay: Antinociceptive activity in mouse at 4.2 umol/kg, sc administered chronically and measured on day 1; type: functional, organism-based; settings: dose 4.2 µmol/kg
# Mus musculus [32] = assay: Antinociceptive activity in mouse at 4.2 umol/kg, sc administered daily and measured on day 1 and 8; type: functional, organism-based; settings: dose 4.2 µmol/kg
# Mu-type opioid receptor [33] = molecular target: T5, Mu-type opioid receptor; assay: Agonist activity at human MOP expressed in HEK293 cells coexpressing GloSensor-20F assessed as inhibition of forskolin-induced cAMP accumulation; type: functional, cell-based
# Mu-type opioid receptor [34] = molecular target: T5, Mu-type opioid receptor; assay: Agonist activity at human Rluc8-tagged MOP expressed in HEK293 cells coexpressing eYFP-tagged beta-arrestin-2 assessed as beta-arrestin-2 recruitment incubated for 5 mins by luminometer analysis relative to control; type: functional, cell-based
# [35] = Induction of motor coordination impairment in C57BL/6 mouse at 12 mg/kg, sc by rotarod assay; type: toxicity, organism-based; settings: in vivo
# [36] = Induction of naltrexone-precipitated withdrawal syndrome in sc dosed C57BL/6N mouse assessed as high jumping score administered for 8 days followed by naltrexone addition on day 9 after 2 hrs post last dose and measured after 30 mins; type: toxicity, organism-based; settings: in vivo, 216.5 h, time 12990 min
# [37] = Induction of naltrexone-precipitated withdrawal syndrome in sc dosed C57BL/6N mouse assessed as paw tremor administered for 8 days followed by naltrexone addition on day 9 after 2 hrs post last dose and measured after 30 mins; type: toxicity, organism-based; settings: in vivo, 216.5 h, time 12990 min
# T1 sequence (Q9Y5X5 whole entry): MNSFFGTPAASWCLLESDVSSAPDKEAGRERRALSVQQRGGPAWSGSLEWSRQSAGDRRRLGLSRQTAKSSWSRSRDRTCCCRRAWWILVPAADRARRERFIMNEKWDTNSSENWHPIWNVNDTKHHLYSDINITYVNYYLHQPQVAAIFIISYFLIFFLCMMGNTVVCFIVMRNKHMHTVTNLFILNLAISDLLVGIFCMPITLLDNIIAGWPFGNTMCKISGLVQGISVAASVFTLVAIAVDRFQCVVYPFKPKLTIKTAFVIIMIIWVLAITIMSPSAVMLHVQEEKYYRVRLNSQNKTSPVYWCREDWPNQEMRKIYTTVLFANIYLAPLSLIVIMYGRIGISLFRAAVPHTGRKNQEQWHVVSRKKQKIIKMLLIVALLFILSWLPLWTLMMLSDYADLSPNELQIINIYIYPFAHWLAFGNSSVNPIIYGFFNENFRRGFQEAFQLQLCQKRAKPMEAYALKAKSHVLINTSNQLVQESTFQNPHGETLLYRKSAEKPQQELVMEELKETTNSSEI
# Chain of KiSS-1 receptor (Homo sapiens) (Q969F8 whole entry): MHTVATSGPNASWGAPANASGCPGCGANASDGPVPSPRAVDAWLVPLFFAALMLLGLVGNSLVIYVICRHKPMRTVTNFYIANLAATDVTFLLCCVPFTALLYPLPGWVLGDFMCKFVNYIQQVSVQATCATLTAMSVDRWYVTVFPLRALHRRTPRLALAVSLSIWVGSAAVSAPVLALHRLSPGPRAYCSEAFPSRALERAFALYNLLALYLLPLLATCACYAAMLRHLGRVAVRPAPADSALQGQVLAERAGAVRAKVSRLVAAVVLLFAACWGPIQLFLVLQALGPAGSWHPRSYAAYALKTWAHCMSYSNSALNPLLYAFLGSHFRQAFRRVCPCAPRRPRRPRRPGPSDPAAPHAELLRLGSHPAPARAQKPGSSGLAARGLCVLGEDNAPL
# T2 sequence (Q9GZQ6 whole entry): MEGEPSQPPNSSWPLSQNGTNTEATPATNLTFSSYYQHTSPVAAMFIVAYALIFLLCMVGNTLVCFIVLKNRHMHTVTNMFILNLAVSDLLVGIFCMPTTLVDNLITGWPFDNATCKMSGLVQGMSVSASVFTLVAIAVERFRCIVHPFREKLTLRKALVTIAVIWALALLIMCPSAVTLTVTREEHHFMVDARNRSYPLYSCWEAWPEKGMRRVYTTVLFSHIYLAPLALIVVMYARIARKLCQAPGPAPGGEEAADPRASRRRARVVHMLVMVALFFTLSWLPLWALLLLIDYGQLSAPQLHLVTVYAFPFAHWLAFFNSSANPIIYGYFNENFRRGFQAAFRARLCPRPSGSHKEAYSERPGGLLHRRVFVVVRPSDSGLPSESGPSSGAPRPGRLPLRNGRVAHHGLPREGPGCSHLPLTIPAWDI
# T5 sequence (P35372 whole entry): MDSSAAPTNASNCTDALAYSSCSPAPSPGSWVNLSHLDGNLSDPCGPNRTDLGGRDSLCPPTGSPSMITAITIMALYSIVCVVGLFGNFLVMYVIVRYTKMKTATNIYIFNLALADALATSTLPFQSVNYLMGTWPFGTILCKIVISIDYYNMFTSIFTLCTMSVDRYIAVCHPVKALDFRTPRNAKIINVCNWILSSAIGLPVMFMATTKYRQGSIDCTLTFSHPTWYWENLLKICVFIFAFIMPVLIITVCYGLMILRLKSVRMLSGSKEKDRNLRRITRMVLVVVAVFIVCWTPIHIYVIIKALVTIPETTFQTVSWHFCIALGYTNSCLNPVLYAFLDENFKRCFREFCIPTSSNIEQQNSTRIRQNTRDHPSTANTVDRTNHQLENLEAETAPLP
# Chain of Nociceptin receptor (Homo sapiens) (P41146 whole entry): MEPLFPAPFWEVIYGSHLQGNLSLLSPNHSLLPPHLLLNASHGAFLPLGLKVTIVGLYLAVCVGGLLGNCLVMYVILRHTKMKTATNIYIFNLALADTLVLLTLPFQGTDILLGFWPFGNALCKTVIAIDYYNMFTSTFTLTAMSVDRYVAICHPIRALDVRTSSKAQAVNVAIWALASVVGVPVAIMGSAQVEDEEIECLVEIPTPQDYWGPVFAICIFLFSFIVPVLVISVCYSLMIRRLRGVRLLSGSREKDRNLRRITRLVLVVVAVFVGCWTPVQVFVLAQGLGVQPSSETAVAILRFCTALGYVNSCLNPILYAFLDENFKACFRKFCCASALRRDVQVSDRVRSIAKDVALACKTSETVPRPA
# T3 sequence (P41145 whole entry): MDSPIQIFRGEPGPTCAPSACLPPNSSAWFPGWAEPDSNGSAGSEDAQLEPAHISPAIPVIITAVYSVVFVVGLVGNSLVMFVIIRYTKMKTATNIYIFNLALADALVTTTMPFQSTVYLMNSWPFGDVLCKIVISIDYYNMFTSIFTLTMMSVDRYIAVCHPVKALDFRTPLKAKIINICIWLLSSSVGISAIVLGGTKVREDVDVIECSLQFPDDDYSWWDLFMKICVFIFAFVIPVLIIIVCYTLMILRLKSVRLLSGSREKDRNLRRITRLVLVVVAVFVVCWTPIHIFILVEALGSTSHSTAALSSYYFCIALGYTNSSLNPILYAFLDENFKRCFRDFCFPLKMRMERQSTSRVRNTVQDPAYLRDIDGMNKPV
# Chain of Delta-type opioid receptor (Homo sapiens) (P41143 whole entry): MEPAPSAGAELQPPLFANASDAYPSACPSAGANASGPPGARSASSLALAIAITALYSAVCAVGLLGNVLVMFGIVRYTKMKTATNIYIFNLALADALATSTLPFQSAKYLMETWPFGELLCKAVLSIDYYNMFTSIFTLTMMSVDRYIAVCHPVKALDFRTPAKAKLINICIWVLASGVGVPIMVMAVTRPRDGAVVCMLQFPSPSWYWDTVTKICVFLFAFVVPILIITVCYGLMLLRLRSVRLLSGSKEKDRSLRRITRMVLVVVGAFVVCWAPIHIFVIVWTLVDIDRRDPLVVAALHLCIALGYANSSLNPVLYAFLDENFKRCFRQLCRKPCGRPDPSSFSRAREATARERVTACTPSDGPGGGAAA
SMILES,Kb [1] [nM],Ki [3] [nM],Activity [4],Activity [6],Activity (Mus musculus [7]),Activity [8] [%],concentration at 2 h [9] [nM],Cmax [10] [nM],Activity [11],Emax (Mu-type opioid receptor [14]) [%],Activity [16] [%],Activity [17],Tmax [18] [h],Activity [19],Activity [20],half-life [21] [h],Kb [22] [nM],Ki [23] [nM],Activity [24],further results
Cc1cc(O)cc(C)c1C[C@H](N)C(=O)N(C)[C@H](C)C(=O)N[C@H]1Cc2c(ccc3ccccc23)CN(CC(=O)N[C@@H](CCCN2CCC(Cc3ccccc3)CC2)C(=O)N[C@@H](Cc2ccccc2)C(N)=O)C1=O,102,54,inactive,Active,Active,80,474,446,inactive,73,51,inactive,1.83,inactive,inactive,3.88,5890,1170,inactive,Activity [2]: 3%; Activity [5]: Active; EC50 (Mu-type opioid receptor [12]; hek293): Not Active; Activity [13]: 22%; Activity [15]: Active
Cc1cc(O)cc(C)c1C[C@H](NC(=N)N)C(=O)N[C@H](CCCNC(=N)N)C(=O)N[C@H]1Cc2ccccc2CN(CCC(=O)N[C@@H](CCCN2CCC(Cc3ccccc3)CC2)C(=O)N[C@@H](Cc2ccccc2)C(N)=O)C1=O,110,4.7,inactive,Active,Active,71,593,887,inactive,66,91,inactive,1.67,inactive,inactive,3.1,240,75,inactive,Activity [25]: Non-Toxic; Activity ([2]; filed as antagonist): 65%; Activity [26]: Non-Toxic; Kb [27]: 0.331 nM; Activity [28]: Non-Toxic; Activity (Mus musculus [29]): inactive; Activity [30]: Active; Activity (Mus musculus [31]): Active; Activity (Mus musculus [32]): Active; EC50 (Mu-type opioid receptor [12]; read-out: EC50): 119 nM; Activity ([13]; filed as antagonist): 93%; EC50 (Mu-type opioid receptor [33]): 9.9 nM; Emax (Mu-type opioid receptor [34]): 15%; Activity [35]: Non-Toxic; Activity [36]: Toxic; Activity [37]: Non-Toxic
